{"source": "patent US10085990B2", "about": "“Tricyclic compounds as modulators of TNF-α synthesis and as PDE4 inhibitors” (vTv Therapeutics LLC, priority 2008, dated 2018)", "tested_on": "TNF synthesis in human PBMC", "experiment": "Human PBMC TNF Synthesis Assay", "assay_type": "cell-based", "conditions": "LPS-stimulated human PBMC, overnight incubation, TNF ELISA; read-out: TNF inhib.", "experimental": "Human PBMC TNF Synthesis Assay\nHuman PBMC were obtained by from a healthy human donor leuko pak. Typically, all donors were pre-screened for STD, HIV and have been given a physical by a physician. One to two ampoules were thawed at 37° C. and then resuspended in 45 to 85 mL of RPMI+10% FBS to a final concentration of 2.5×10^6 cells/mL. Resuspended cells were filtered to remove any large clumps.\nPrepare compounds for addition to cells: All compounds were DMSO stocks at 20 mM. Working stock for cell testing were prepared as 4× concentrated material in RPMI+10% FBS. Compounds were added to a polypropylene block and then diluted with the appropriate amount of RPMI+10% FBS. Typically 2.6 μL of 20 mM stock was diluted to 650 μL final volume to yield an 80 μM starting concentration in the stocks. RPMI was added to DMSO stock by pipetting into the tube or block. The compounds were then serial diluted with RPMI+10% FBS. The final DMSO concentrations were not greater than 0.5% in the assay.\nCompounds were added to the cells as 4× working stock. 50 μL of compound was prepared above is added to the cells and re-equilibrated in a humidified 5% CO2 incubator at 37° C. for 30 minutes.\nA stock of LPS was prepared using RPMI+10% FBS. To prepare the stock, 2.8 μL of LPS (5 mg/mL; Sigma Cat #L3024) was added to 35 mL of media. 50 μL of the LPS in media was added to the cells. Control cultures without LPS received only RPMI+10% FBS. After an overnight incubation at 37° C., the cell culture supernatant was harvested and stored in a polypropylene 96 well plate.\nSamples were tested for TNF as per the manufacturer's instructions (TNF ELISA; R&D Systems, Cat #DY210). The samples were serially diluted with PBS+1% BSA to the appropriate dilution condition for the cell prep, typically a 1:4 or 1:6 dilution.", "data": [{"smiles": "CCn1c(=O)c2cnc3c(OC)cccc3c2n(C2CCCC2)c1=O", "note": "[Example 1, 1-cyclopentyl-3-ethyl-7-methoxy-1H-pyrimido[5,4-c]quinoline-2,4-dione]", "values": [{"measurement": "IC50", "value": 180, "unit": "nM"}]}, {"smiles": "CCn1c(=O)c2cnc3c(OC)cccc3c2n(-c2ccc(OC)c(OC)c2)c1=O", "note": "[Example 4, 1-(3,4-Dimethoxy-phenyl)-3-ethyl-7-methoxy-1H-pyrimido[5,4-c]quinoline-2,4-dione]", "values": [{"measurement": "IC50", "value": 14200, "unit": "nM"}]}, {"smiles": "COc1cccc2c1ncc1c(=O)n(C(C)C)c(=O)n(C3CCCC3)c12", "note": "[Example 5, 1-Cyclopentyl-3-isopropyl-7-methoxy-1H-pyrimido[5,4-c]quinoline-2,4-dione]", "values": [{"measurement": "IC50", "value": 270, "unit": "nM"}]}, {"smiles": "COc1cccc2c1ncc1c(=O)n(-c3cccs3)c(=O)n(C3CCCC3)c12", "note": "[Example 10, 1-Cyclopentyl-7-methoxy-3-thiophen-2-yl-1H-pyrimido[5,4-c]quinoline-2,4-dione]", "values": [{"measurement": "IC50", "value": 410, "unit": "nM"}]}, {"smiles": "CCCn1c(=O)n(CC)c(=O)c2cnc3c(OC)cccc3c21", "note": "[Example 16, 3-Ethyl-7-methoxy-1-propyl-1H-pyrimido[5,4-c]quinoline-2,4-dione]", "values": [{"measurement": "IC50", "value": 680, "unit": "nM"}]}, {"smiles": "CCCCn1c(=O)n(CC)c(=O)c2cnc3c(OC)cccc3c21", "note": "[Example 17, 1-Butyl-3-ethyl-7-methoxy-1H-pyrimido[5,4-c]quinoline-2,4-dione]", "values": [{"measurement": "IC50", "value": 390, "unit": "nM"}]}, {"smiles": "CCn1c(=O)c2cnc3c(OC)cccc3c2n(CC(C)C)c1=O", "note": "[Example 18, 3-Ethyl-1-isobutyl-7-methoxy-1H-pyrimido[5,4-c]quinoline-2,4-dione]", "values": [{"measurement": "IC50", "value": 1100, "unit": "nM"}]}, {"smiles": "CCn1c(=O)c2cnc3c(OC)cc(Cl)cc3c2n(C2CCCC2)c1=O", "note": "[Example 28, 9-Chloro-1-cyclopentyl-3-ethyl-7-methoxy-1H-pyrimido[5,4-c]quinoline-2,4-dione]", "values": [{"measurement": "IC50", "value": 3500, "unit": "nM"}]}, {"smiles": "CCn1c(=O)c2cnc3c(Cl)cccc3c2n(C2CCCC2)c1=O", "note": "[Example 30, 7-Chloro-1-cyclopentyl-3-ethyl-1H-pyrimido[5,4-c]quinoline-2,4-dione]", "values": [{"measurement": "IC50", "value": 2500, "unit": "nM"}]}, {"smiles": "CCCc1cccc2c1ncc1c(=O)n(CC)c(=O)n(C3CCCC3)c12", "note": "[Example 32, 1-Cyclopentyl-3-ethyl-7-propyl-1H-pyrimido[5,4-c]quinoline-2,4-dione]", "values": [{"measurement": "IC50", "value": 2600, "unit": "nM"}]}, {"smiles": "CCn1c(=O)c2cnc3c(C(C)C)cccc3c2n(C2CCCC2)c1=O", "note": "[Example 33, 1-Cyclopentyl-3-ethyl-7-isopropyl-1H-pyrimido[5,4-c]quinoline-2,4-dione]", "values": [{"measurement": "IC50", "value": 20000, "unit": "nM"}]}, {"smiles": "CCn1c(=O)c2cnc3c(OC(F)(F)F)cccc3c2n(C2CCCC2)c1=O", "note": "[Example 34, 1-Cyclopentyl-3-ethyl-7-trifluoromethoxy-1H-pyrimido[5,4-c]quinoline-2,4-dione]", "values": [{"measurement": "IC50", "value": 3600, "unit": "nM"}]}, {"smiles": "CCn1c(=O)c2cnc3c(OC)cccc3c2n(C(C)C)c1=O", "note": "[Example 37, 3-Ethyl-1-isopropyl-7-methoxy-1H-pyrimido[5,4-c]quinoline-2,4-dione]", "values": [{"measurement": "IC50", "value": 20000, "unit": "nM"}]}, {"smiles": "CCC(C)n1c(=O)c2cnc3c(OC)cccc3c2n(C2CCCC2)c1=O", "note": "(centres unmarked) [Example 38, 3-sec-Butyl-1-cyclopentyl-7-methoxy-1H-pyrimido[5,4-c]quinoline-2,4-dione]", "values": [{"measurement": "IC50", "value": 450, "unit": "nM"}]}, {"smiles": "COc1cccc2c1ncc1c(=O)n(-c3ccccc3)c(=O)n(C3CCCC3)c12", "note": "[Example 39, 1-Cyclopentyl-7-methoxy-3-phenyl-1H-pyrimido[5,4-c]quinoline-2,4-dione]", "values": [{"measurement": "IC50", "value": 1300, "unit": "nM"}]}, {"smiles": "CCn1c(=O)c2cnc3c(C)cccc3c2n(C2CCCC2)c1=O", "note": "[Example 41, 1-Cyclopentyl-3-ethyl-7-methyl-1H-pyrimido[5,4-c]quinoline-2,4-dione]", "values": [{"measurement": "IC50", "value": 500, "unit": "nM"}]}, {"smiles": "CCn1c(=O)c2cnc3c(OC)cccc3c2n(C2CCC(C)CC2)c1=O", "note": "(centres unmarked) [Example 45, 3-Ethyl-7-methoxy-1-(4-methyl-cyclohexyl)-1H-pyrimido[5,4-c]quinoline-2,4-dione]", "values": [{"measurement": "IC50", "value": 200, "unit": "nM"}]}, {"smiles": "CCOC(=O)Cn1c(=O)c2cnc3c(OC)cccc3c2n(C2CCCC2)c1=O", "note": "[Example 46, (1-Cyclopentyl-7-methoxy-2,4-dioxo-1,4-dihydro-2H-pyrimido[5,4-c]quinolin-3-yl)-acetic acid ethyl ester]", "values": [{"measurement": "IC50", "value": 1000, "unit": "nM"}]}, {"smiles": "COc1cccc2c1ncc1c(=O)n(C)c(=O)n(C3CCCC3)c12", "note": "[Example 48, 1-Cyclopentyl-7-methoxy-3-methyl-1H-pyrimido[5,4-c]quinoline-2,4-dione]", "values": [{"measurement": "IC50", "value": 1400, "unit": "nM"}]}, {"smiles": "COc1cccc2c1ncc1c(=O)n(-c3cc(C)cs3)c(=O)n(C3CCCC3)c12", "note": "[Example 51, 1-Cyclopentyl-7-methoxy-3-(4-methyl-thiophen-2-yl)-1H-pyrimido[5,4-c]quinoline-2,4-dione]", "values": [{"measurement": "IC50", "value": 30, "unit": "nM"}]}, {"smiles": "COc1cccc2c1ncc1c(=O)n(-c3cccc(C)c3)c(=O)n(C3CCCC3)c12", "note": "[Example 54, 1-Cyclopentyl-7-methoxy-3-m-tolyl-1H-pyrimido[5,4-c]quinoline-2,4-dione]", "values": [{"measurement": "IC50", "value": 6, "unit": "nM"}]}, {"smiles": "COc1cccc2c1ncc1c(=O)n(-c3ccc(C)cc3)c(=O)n(C3CCCC3)c12", "note": "[Example 55, 1-Cyclopentyl-7-methoxy-3-p-tolyl-1H-pyrimido[5,4-c]quinoline-2,4-dione]", "values": [{"measurement": "IC50", "value": 163, "unit": "nM"}]}, {"smiles": "COc1cccc2c1ncc1c(=O)n(-c3cccc(Cl)c3)c(=O)n(C3CCC(C)CC3)c12", "note": "(centres unmarked) [Example 72, 3-(3-Chloro-phenyl)-7-methoxy-1-(4-methyl-cyclohexyl)-1H-pyrimido[5,4-c]quinoline-2,4-dione]", "values": [{"measurement": "IC50", "value": 4, "unit": "nM"}]}, {"smiles": "COc1cccc2c1ncc1c(=O)n(-c3cccc(Cl)c3)c(=O)n(C3CCCC3)c12", "note": "[Example 73, 3-(3-Chloro-phenyl)-1-cyclopentyl-7-methoxy-1H-pyrimido[5,4-c]quinoline-2,4-dione]", "values": [{"measurement": "IC50", "value": 9, "unit": "nM"}]}, {"smiles": "CCc1cccc(-n2c(=O)c3cnc4c(OC)cccc4c3n(C3CCCC3)c2=O)c1", "note": "[Example 75, 1-Cyclopentyl-3-(3-ethyl-phenyl)-7-methoxy-1H-pyrimido[5,4-c]quinoline-2,4-dione]", "values": [{"measurement": "IC50", "value": 6, "unit": "nM"}]}, {"smiles": "COc1cccc2c1ncc1c(=O)n(-c3cccc(C)c3)c(=O)n(C3CCC(C)CC3)c12", "note": "(centres unmarked) [Example 78, 7-Methoxy-1-(4-methyl-cyclohexyl)-3-m-tolyl-1H-pyrimido[5,4-c]quinoline-2,4-dione]", "values": [{"measurement": "IC50", "value": 1, "unit": "nM"}]}, {"smiles": "COc1cccc2c1ncc1c(=O)n(-c3cccc(Cl)c3)c(=O)n(C3CCC(F)(F)CC3)c12", "note": "[Example 87, 3-(3-Chloro-phenyl)-1-(4,4-difluoro-cyclohexyl)-7-methoxy-1H-pyrimido[5,4-c]quinoline-2,4-dione]", "values": [{"measurement": "IC50", "value": 2, "unit": "nM"}]}, {"smiles": "COc1cccc2c1ncc1c(=O)n(-c3cccc(Cl)c3)c(=O)n(C3CCN(C(=O)OC(C)(C)C)CC3)c12", "note": "[Example 88, 4-[3-(3-Chloro-phenyl)-7-methoxy-2,4-dioxo-3,4-dihydro-2H-pyrimido[5,4-c]quinolin-1-yl]-piperidine-1-carboxylic acid tert-butyl ester]", "values": [{"measurement": "IC50", "value": 1, "unit": "nM"}]}, {"smiles": "COc1cccc2c1ncc1c(=O)n(-c3cccc(Cl)c3)c(=O)n(C3CCNCC3)c12", "note": "[Example 89, 3-(3-Chloro-phenyl)-7-methoxy-1-piperidin-4-yl-1H-pyrimido[5,4-c]quinoline-2,4-dione.dihydrochlode]", "values": [{"measurement": "IC50", "value": 5, "unit": "nM"}]}, {"smiles": "COc1cccc2c1ncc1c(=O)n(-c3cccc(Cl)c3)c(=O)n(C3CCN(C(C)=O)CC3)c12", "note": "[Example 90, 1-(1-Acetyl-piperidin-4-yl)-3-(3-chloro-phenyl)-7-methoxy-1H-pyrimido[5,4-c]quinoline-2,4-dione]", "values": [{"measurement": "IC50", "value": 2, "unit": "nM"}]}, {"smiles": "COc1cccc2c1ncc1c(=O)n(-c3cccc(Cl)c3)c(=O)n(C3CCN(C(=O)c4ccccc4)CC3)c12", "note": "[Example 91, 1-(1-Benzoyl-piperidin-4-yl)-3-(3-chloro-phenyl)-7-methoxy-1H-pyrimido[5,4-c]quinoline-2,4-dione]", "values": [{"measurement": "IC50", "value": 1, "unit": "nM"}]}, {"smiles": "COc1cccc2c1ncc1c(=O)n(-c3cccc(Cl)c3)c(=O)n(C3CCN(S(=O)(=O)C(C)C)CC3)c12", "note": "[Example 93, 3-(3-Chloro-phenyl)-7-methoxy-1-[1-(propane-2-sulfonyl)-piperidin-4-yl]-1H-pyrimido[5,4-c]quinoline-2,4-dione]", "values": [{"measurement": "IC50", "value": 0.4, "unit": "nM"}]}, {"smiles": "COc1cccc2c1ncc1c(=O)n(-c3cccc(Cl)c3)c(=O)n(C3CCN(S(=O)(=O)N(C)C)CC3)c12", "note": "[Example 94, 4-[3-(3-Chloro-phenyl)-7-methoxy-2,4-dioxo-3,4-dihydro-2H-pyrimido[5,4-c]quinolin-1-yl]-piperidine-1-sulfonic acid dimethylamide]", "values": [{"measurement": "IC50", "value": 0.4, "unit": "nM"}]}, {"smiles": "COc1cccc2c1ncc1c(=O)n(-c3cccc(Cl)c3)c(=O)n(C3CCN(S(=O)(=O)c4ccccc4)CC3)c12", "note": "[Example 95, 1-(1-Benzenesulfonyl-piperidin-4-yl)-3-(3-chloro-phenyl)-7-methoxy-1H-pyrimido[5,4-c]quinoline-2,4-dione]", "values": [{"measurement": "IC50", "value": 1, "unit": "nM"}]}, {"smiles": "CCNC(=O)N1CCC(n2c(=O)n(-c3cccc(Cl)c3)c(=O)c3cnc4c(OC)cccc4c32)CC1", "note": "[Example 97, 4-[3-(3-Chloro-phenyl)-7-methoxy-2,4-dioxo-3,4-dihydro-2H-pyrimido[5,4-c]quinolin-1-yl]-piperidine-1-carboxylic acid ethylamide]", "values": [{"measurement": "IC50", "value": 0.6, "unit": "nM"}]}]}
